How the values were obtained:
Assay in all cases: UPLC rhamnosylation assay, Michaelis-Menten fit
Settings in all cases: 0.1 mM UDP-rhamnose as co-substrate; pH 7.5, 37 °C
CiRhaT-JX4x (UGT79A21) = tested on: T1, CiRhaT-JX4x (UGT79A21); format: biochemical, Chrysanthemum indicum
T1 construct: full-length, 469 aa, MBP fusion (pMAL-c5X, tag removal not mentioned), E. coli Rosetta (DE3)

CnRhaT-HB2x (UGT79A23) = tested on: T2, CnRhaT-HB2x (UGT79A23); format: biochemical, Chrysanthemum nankingense
T2 construct: full-length, 469 aa, MBP fusion (pMAL-c5X, tag removal not mentioned), E. coli Rosetta (DE3)

CiRhaT-GD4x (UGT79A20) = tested on: T3, CiRhaT-GD4x (UGT79A20); format: biochemical, Chrysanthemum indicum
T3 construct: full-length, 469 aa, MBP fusion (pMAL-c5X, tag removal not mentioned), E. coli Rosetta (DE3)

CiRhaT-HB2x (UGT79A22) = tested on: T4, CiRhaT-HB2x (UGT79A22); format: biochemical, Chrysanthemum indicum
T4 construct: full-length, 469 aa, MBP fusion (pMAL-c5X, tag removal not mentioned), E. coli Rosetta (DE3)

Km (CiRhaT-JX4x (UGT79A21)) [µM] | Km (CnRhaT-HB2x (UGT79A23)) [µM] | Km (CiRhaT-GD4x (UGT79A20)) [µM] | Km (CiRhaT-HB2x (UGT79A22)) [µM] | Compound
8.27 ± 0.984 | 9.45 ± 1.5 | 14.2 ± 1.36 | 8.71 ± 1.79 | COc1ccc(-c2cc(=O)c3c(O)cc(O[C@@H]4O[C@H](CO)[C@@H](O)[C@H](O)[C@H]4O)cc3o2)cc1 [compound 1, acacetin-7-O-glucoside]
45.3 ± 6.08 | 140 ± 32.1 | 32.4 ± 5.9 | 57.1 ± 5.34 | O=c1cc(-c2ccc(O)cc2)oc2cc(O[C@@H]3O[C@H](CO)[C@@H](O)[C@H](O)[C@H]3O)cc(O)c12 [compound 2, apigenin-7-O-glucoside]
7.67 ± 0.809 | 17.7 ± 2.82 | 12.9 ± 1.27 | 9.35 ± 1.38 | COc1ccc(-c2cc(=O)c3c(O)cc(O[C@@H]4O[C@H](CO)[C@@H](O)[C@H](O)[C@H]4O)cc3o2)cc1O [compound 3, diosmetin-7-O-glucoside]

From paper PMC9706480, “Rhamnosyltransferases involved in the biosynthesis of flavone rutinosides in Chrysanthemum species” (Plant Physiology, 2022)
